# Test results as given in ChEMBL document CHEMBL1135889, “Novel 4-anilinoquinazolines with C-7 basic side chains: design and structure activity relationship of a series of potent, orally active, VEGF receptor tyrosine kinase inhibitors” (J Med Chem, 2002).
# Key:
# [1] = Plasma levels following administration of 100 mg/Kg perorally and concentration in plasma 6 hr after administration; assay type: ADME, cell-free; settings: po, read-out: Plasma level
# [2] = biological target: Vascular endothelial growth factor receptor (Homo sapiens, UniProt P17948+P35916+P35968); experiment: Inhibition of human endothelial cell growth stimulate by vascular endothelial growth factor
# [3] = Plasma levels following administration of 100 mg/Kg perorally and concentration in plasma 24 hr after administration; assay type: ADME, cell-free; settings: po, read-out: Plasma level
# [4] = biological target: Epidermal growth factor receptor (Homo sapiens, UniProt P00533); experiment: Inhibition of epidermal growth factor receptor kinase activity […] of ATP
# Sequence of Epidermal growth factor receptor (P00533 whole entry): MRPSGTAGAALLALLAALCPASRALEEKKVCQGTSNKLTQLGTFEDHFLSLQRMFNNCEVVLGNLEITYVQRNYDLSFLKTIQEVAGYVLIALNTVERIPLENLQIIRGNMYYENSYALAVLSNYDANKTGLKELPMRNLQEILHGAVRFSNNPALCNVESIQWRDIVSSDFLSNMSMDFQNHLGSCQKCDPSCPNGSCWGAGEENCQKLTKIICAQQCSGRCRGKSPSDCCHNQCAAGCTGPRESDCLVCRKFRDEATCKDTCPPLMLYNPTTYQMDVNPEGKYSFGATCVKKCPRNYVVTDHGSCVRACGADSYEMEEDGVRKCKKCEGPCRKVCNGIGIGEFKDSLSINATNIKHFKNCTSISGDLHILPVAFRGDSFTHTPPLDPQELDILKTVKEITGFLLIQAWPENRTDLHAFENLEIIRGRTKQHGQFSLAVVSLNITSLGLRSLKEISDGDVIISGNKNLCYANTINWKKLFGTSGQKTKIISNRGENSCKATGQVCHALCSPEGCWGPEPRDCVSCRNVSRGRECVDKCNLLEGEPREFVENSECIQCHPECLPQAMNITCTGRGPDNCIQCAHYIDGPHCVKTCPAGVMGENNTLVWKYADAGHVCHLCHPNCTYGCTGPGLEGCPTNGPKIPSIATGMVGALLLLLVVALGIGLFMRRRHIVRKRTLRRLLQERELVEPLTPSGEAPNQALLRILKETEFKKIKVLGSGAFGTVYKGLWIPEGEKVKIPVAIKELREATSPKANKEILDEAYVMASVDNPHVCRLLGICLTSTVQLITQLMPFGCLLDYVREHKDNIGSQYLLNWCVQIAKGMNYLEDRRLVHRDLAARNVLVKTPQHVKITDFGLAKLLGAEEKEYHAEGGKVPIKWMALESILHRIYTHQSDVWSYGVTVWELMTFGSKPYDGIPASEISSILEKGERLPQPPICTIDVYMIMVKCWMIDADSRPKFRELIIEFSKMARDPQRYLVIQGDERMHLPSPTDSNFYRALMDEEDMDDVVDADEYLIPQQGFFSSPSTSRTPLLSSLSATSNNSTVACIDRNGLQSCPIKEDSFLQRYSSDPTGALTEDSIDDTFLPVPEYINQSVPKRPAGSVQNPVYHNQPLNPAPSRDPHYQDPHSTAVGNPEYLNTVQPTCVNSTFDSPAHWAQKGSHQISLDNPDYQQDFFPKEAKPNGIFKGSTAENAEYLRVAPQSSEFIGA
# [5] = system: HUVEC; experiment: Inhibition of basal unstimulated growth of human endothelial cell; assay type: functional, cell-based
# [6] = biological target: Vascular endothelial growth factor receptor 2 (Homo sapiens, UniProt P35968); experiment: Inhibition of vascular endothelial growth factor receptor 2 kinase activity […]
# Sequence of Vascular endothelial growth factor receptor 2 (P35968 whole entry): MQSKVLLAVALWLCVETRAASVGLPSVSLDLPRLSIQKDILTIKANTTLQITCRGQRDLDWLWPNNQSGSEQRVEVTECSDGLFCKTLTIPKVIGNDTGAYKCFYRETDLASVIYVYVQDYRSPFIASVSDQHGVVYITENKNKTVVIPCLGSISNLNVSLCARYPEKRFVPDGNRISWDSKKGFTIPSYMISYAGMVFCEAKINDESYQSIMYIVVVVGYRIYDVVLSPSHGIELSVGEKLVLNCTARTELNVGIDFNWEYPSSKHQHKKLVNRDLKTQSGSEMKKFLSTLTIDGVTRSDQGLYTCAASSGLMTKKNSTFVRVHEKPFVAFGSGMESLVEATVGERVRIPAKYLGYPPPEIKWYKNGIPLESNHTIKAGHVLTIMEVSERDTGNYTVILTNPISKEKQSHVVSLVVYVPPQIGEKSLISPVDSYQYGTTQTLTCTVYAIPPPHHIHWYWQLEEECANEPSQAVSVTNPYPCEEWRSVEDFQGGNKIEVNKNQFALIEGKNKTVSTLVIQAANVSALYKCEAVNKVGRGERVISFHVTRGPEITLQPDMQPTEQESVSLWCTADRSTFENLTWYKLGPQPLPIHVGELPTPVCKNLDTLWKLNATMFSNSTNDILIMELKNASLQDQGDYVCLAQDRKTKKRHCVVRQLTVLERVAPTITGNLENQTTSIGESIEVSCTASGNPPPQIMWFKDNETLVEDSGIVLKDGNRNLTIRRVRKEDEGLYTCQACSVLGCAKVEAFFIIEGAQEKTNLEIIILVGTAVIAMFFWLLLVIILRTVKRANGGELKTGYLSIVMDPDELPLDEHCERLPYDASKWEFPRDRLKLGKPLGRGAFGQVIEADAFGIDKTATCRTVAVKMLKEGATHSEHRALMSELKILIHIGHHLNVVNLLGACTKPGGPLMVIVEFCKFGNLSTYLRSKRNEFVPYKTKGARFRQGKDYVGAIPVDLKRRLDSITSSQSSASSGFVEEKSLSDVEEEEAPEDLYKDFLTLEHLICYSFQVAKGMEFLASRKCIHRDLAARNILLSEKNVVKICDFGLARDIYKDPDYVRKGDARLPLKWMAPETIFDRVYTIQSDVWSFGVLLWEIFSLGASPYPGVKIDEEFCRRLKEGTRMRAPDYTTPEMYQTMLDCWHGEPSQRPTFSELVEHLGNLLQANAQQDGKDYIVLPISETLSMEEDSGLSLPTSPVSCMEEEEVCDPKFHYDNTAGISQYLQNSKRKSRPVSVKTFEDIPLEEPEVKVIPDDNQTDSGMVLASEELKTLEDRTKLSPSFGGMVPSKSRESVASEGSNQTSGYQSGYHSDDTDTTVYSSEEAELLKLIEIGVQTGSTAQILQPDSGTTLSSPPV
# [7] = biological target: Vascular endothelial growth factor receptor 1 (Homo sapiens, UniProt P17948); experiment: Inhibition of fms-like tyrosine kinase receptor (Flt-1) kinase activity […] of ATP
# Sequence of Vascular endothelial growth factor receptor 1 (P17948 whole entry): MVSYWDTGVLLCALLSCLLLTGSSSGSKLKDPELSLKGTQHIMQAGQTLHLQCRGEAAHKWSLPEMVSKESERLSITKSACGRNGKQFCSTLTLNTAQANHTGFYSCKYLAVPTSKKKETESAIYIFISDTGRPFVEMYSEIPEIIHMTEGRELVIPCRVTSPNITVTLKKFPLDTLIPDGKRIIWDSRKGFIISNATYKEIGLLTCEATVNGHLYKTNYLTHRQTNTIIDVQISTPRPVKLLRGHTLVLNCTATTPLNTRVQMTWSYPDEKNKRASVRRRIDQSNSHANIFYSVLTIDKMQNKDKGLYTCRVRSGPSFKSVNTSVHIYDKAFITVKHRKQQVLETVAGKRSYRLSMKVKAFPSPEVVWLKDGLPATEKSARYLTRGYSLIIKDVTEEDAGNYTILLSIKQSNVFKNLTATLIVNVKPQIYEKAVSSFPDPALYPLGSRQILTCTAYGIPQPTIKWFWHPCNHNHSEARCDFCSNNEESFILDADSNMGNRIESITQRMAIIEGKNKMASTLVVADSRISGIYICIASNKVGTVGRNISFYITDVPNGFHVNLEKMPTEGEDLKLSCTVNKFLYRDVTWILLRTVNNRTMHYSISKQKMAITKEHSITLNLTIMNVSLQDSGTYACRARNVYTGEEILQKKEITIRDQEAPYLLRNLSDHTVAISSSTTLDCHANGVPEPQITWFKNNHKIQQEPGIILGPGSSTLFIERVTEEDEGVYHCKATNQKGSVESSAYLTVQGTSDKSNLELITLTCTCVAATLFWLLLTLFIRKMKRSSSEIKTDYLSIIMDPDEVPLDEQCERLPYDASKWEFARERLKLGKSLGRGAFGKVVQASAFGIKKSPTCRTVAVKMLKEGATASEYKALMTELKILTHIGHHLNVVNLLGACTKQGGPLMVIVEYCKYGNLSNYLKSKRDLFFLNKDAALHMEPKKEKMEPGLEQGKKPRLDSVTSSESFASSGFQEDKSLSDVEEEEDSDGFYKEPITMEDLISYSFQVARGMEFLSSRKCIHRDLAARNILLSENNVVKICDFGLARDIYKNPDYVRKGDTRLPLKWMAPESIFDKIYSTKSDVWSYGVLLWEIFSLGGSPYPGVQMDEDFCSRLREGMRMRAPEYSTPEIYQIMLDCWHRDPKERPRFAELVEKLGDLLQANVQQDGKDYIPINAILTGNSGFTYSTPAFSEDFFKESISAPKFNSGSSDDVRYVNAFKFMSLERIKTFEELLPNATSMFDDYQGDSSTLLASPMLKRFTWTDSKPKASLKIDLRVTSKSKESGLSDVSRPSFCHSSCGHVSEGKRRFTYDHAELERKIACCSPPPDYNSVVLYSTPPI
# [8] = biological target: Fibroblast growth factor receptor 1 (Homo sapiens, UniProt P11362)
# Sequence of Fibroblast growth factor receptor 1 (P11362 whole entry): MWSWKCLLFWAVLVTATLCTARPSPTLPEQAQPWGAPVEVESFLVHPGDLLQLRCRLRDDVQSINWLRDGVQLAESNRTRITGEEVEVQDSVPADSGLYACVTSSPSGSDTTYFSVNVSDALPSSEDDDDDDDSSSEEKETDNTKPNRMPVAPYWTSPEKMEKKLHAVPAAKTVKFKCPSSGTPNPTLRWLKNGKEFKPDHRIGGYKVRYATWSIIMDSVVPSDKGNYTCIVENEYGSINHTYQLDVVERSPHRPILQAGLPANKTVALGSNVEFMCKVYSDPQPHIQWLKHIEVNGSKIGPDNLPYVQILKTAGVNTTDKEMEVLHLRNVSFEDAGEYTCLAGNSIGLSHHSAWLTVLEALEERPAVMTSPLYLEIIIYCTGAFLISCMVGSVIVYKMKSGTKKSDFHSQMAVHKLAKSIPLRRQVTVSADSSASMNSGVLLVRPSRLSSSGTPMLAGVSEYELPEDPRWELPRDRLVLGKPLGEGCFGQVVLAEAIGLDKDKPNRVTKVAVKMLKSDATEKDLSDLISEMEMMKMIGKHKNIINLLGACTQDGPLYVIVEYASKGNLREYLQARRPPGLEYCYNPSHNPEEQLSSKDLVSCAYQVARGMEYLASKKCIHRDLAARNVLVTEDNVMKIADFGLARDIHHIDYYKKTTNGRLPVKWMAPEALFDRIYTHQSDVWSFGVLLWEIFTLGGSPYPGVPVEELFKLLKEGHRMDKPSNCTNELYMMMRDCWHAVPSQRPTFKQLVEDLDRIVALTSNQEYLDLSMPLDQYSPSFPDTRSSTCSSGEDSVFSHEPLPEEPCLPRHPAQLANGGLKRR
# Description: Inhibition fibroblast growth factor receptor TK kinase activity at a concentration of 2 uM
# [9] = solubility was determined using free base at pH 7; assay type: physicochemical; settings: buffer
# [10] = physchem; settings: pH 7.4
# [11] = physchem; settings: octanol/water, pH 7.4
# [12] = Plasma levels following administration of 50 mg/Kg perorally and concentration in plasma 6 hr after administration; assay type: ADME, cell-free; settings: po, read-out: Plasma level
# [13] = Plasma levels following administration of 50 mg/Kg perorally and concentration in plasma 24 hr after administration; assay type: ADME, cell-free; settings: po, read-out: Plasma level
# [14] = pKa value at a pH of […].value ranges from […]-[…].; assay type: physicochemical; settings: pH 7.4
# [15] = biological target: Angiopoietin-1 receptor (Homo sapiens, UniProt Q02763); experiment: Inhibition of Tyrosine protein kinase TIE-2 at ATP <Km
# [16] = biological target: Cyclin-dependent kinase 2 (Homo sapiens, UniProt P24941); experiment: Inhibition of Cyclin-dependent kinase 2 (CDK2) at ATP concentration <Km
# [17] = Pharmacokinetic parameters in dog, and clearance value reported after oral administration of 50 mg/Kg.; assay type: ADME, organism-based, Canis lupus familiaris; settings: in vivo
# [18] = Plasma levels following administration of 50 mg/Kg perorally and concentration of compound in plasma 24 hr after administration; assay type: ADME, cell-free; settings: po, read-out: Plasma level
# [19] = Bioavailability in rat after oral dose at 50 mg/kg free base; assay type: ADME, organism-based; settings: in vivo
# [20] = biological target: Receptor tyrosine-protein kinase erbB-2 (Homo sapiens, UniProt P04626); experiment: Inhibition of ERBB2 receptor kinase at ATP concentration <Km
# [21] = Pharmacokinetic parameter half-life in dog was reported after intravenous administration of 5 mg/Kg measured on free base; settings: in vivo
# [22] = (§1) Binding affinity to serum protein in rat; assay type: ADME, organism-based; settings: read-out: %Bound_Plasma (converted)
# [23] = solubility was determined using free base at pH 7.4; assay type: physicochemical; settings: buffer
# [24] = biological target: Serine/threonine-protein kinase AKT (Homo sapiens, UniProt P31751+Q9Y243+P31749); experiment: Inhibition of Protein kinase B (AKT) at ATP <Km; assay type: protein assay
# [25] = Pharmacokinetic parameter half-life in rat was reported after intravenous administration of 5 mg/Kg measured on free base; settings: in vivo
# [26] = pKa value at a pH of […].; assay type: physicochemical; settings: pH 7.4
# [27] = biological target: Dual specificity mitogen-activated protein kinase kinase; MEK1/2 (Homo sapiens, UniProt P36507+Q02750); experiment: Inhibition of Mitogen activated protein kinase (MEK) at ATP <Km; assay type: protein assay
# [28] = (§2) Binding affinity of serum protein in mouse.; assay type: ADME, organism-based; settings: read-out: %Bound_Plasma (converted)
# [29] = biological target: Insulin-like growth factor 1 receptor (Homo sapiens, UniProt P08069); experiment: Inhibition of Insulin-like growth factor I receptor at ATP <Km
# [30] = biological target: T1, 3-phosphoinositide-dependent protein kinase 1 (Homo sapiens, UniProt O15530); experiment: Inhibition of receptor kinase activity against PDK (phospho-inositide dependent kinase) at ATP <Km
# T1 sequence (O15530 whole entry): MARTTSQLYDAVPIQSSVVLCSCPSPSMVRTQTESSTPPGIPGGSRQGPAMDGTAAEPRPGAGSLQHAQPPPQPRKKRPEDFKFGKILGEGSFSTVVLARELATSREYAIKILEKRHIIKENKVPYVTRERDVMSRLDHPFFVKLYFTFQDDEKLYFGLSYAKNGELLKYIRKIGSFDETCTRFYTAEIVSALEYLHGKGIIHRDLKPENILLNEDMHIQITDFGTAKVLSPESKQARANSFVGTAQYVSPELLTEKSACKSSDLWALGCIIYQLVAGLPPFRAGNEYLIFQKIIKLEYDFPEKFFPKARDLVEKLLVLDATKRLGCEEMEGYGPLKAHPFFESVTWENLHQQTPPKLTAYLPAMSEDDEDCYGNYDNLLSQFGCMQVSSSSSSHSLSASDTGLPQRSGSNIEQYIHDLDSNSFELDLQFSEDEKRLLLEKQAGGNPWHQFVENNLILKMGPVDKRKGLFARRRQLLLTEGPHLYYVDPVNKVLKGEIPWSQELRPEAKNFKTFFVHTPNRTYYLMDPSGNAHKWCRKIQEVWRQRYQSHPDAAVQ
# [31] = Pharmacokinetic parameter bioavailability in dog was reported after oral administration of 30 mg/Kg measured on free base; settings: in vivo
# [32] = species: Rattus norvegicus; experiment: as §1; assay type: functional
# [33] = species: Mus musculus; experiment: as §2; assay type: functional, organism-based
SMILES,IC50 [2] [nM],IC50 [4] [nM],IC50 [5] [nM],IC50 [6] [nM],IC50 [7] [nM],IC50 [8] [nM],also measured
COc1cc2c(Nc3ccc(Cl)cc3F)ncnc2cc1OCCN(C)c1ccncc1,200,300,5000,–,–,–,concentration at 6 h [1]: 4600 nM; concentration at 24 h [3]: 2000 nM
COc1cc2c(Nc3ccc(C)cc3F)ncnc2cc1OCC1CCNCC1,250,500,> 5000,30,700,12300,–
COc1cc2c(Nc3ccc(Cl)cc3F)ncnc2cc1OCCCN1CCOCC1,–,–,2000,–,–,–,solubility [9]: 20 µM; concentration at 6 h [1]: 4000 nM; pKa [10]: 7.2; logD [11]: 3.4; concentration at 24 h [3]: 800 nM
COc1cc2c(Nc3ccc(Br)cc3F)ncnc2cc1OC[C@H]1CCCN(C)C1,40,–,1000,10,500,5000,–
COc1cc2c(Nc3cc(O)c(Cl)cc3F)ncnc2cc1OCC1CCN(C)CC1.Cl,3,100,500,8,20,900,–
COc1cc2c(Nc3cc(O)c(C)cc3F)ncnc2cc1OCC1CCN(C)CC1.Cl,30,300,800,7,25,1500,–
COc1cc2c(Nc3ccc(Cl)cc3F)ncnc2cc1OCC1CCN(C)CC1.Cl,50,–,5000,15,2000,4300,–
COc1cc2c(Nc3ccc(Cl)cc3F)ncnc2cc1OCCCN1CCCC1.Cl,8,–,5000,30,200,4200,–
COc1cc2c(Nc3ccc(Br)cc3F)ncnc2cc1OCCC1CCNCC1,–,–,3000,40,–,2700,–
COc1cc2c(Nc3ccc(Cl)cc3F)ncnc2cc1OCCN1CCN(C)CC1,100,200,10000,30,300,8000,–
COc1cc2c(Nc3ccc(Cl)cc3F)ncnc2cc1OCC1CCNCC1.Cl,60,300,5000,50,1000,5000,–
COc1cc2c(Nc3ccc(C)cc3F)ncnc2cc1OCC1CCN(C)CC1,65,1000,> 5000,25,500,13500,–
COc1cc2c(Nc3c(F)cc(Br)cc3F)ncnc2cc1OCC1CCN(C)CC1,100,300,> 1000,10,500,1500,–
COc1cc2c(Nc3ccc(Br)cc3F)ncnc2cc1OC[C@@H]1CCCN(C)C1,60,–,10000,1,500,1800,concentration at 6 h [12]: 5500 nM; concentration at 24 h [13]: 2500 nM
COc1cc2c(Nc3ccc(Br)cc3F)ncnc2cc1OCCCN1CCN(C)CC1.Cl,30,100,> 1000,9,550,2000,–
COc1cc2c(Nc3ccc(Cl)cc3F)ncnc2cc1OC1CCN(C)CC1,–,–,–,–,1500,50000,–
COc1cc2c(Nc3ccc(Cl)cc3F)ncnc2cc1OCCN1CCOCC1,300,400,5000,–,–,–,concentration at 6 h [1]: 12000 nM; concentration at 24 h [3]: 500 nM
COc1cc2c(Nc3c(F)cc(Cl)cc3F)ncnc2cc1OCC1CCNCC1,100,500,> 1000,40,450,2500,–
COc1cc2c(Nc3ccc(Cl)cc3F)ncnc2cc1OCCC1CCN(C)CC1,70,300,3000,55,500,4100,–
COc1cc2c(Nc3c(F)cc(Br)cc3F)ncnc2cc1OCC1CCNCC1,70,450,3000,15,800,1900,–
COCCOc1cc2ncnc(Nc3ccc(Cl)cc3F)c2cc1OC,40,100,5000,–,–,–,concentration at 6 h [1]: 12000 nM; concentration at 24 h [3]: < 100 nM
COc1cc2c(Nc3ccc(C#N)cc3F)ncnc2cc1OC/C=C/CN1CCCC1,500,800,10000,230,3900,19000,–
COc1cc2c(Nc3ccc(Cl)cc3F)ncnc2cc1OCCCN1CCN(C)CC1.Cl,50,75,5000,20,600,2100,concentration at 6 h [12]: 5000 nM; solubility [9]: 60 µM; logD [11]: 2.4; pKa [14]: 7.9; concentration at 24 h [13]: 3000 nM
COc1cc2c(Nc3ccc(Br)cc3F)ncnc2cc1OCCC1CCN(C)CC1,–,–,3000,6,–,2100,concentration at 6 h [12]: 3000 nM; concentration at 24 h [13]: 2000 nM
COc1cc2c(Nc3ccc(Cl)cc3F)ncnc2cc1OC/C=C/CN1CCCC1.Cl,40,90,1000,40,750,1900,–
COc1cc2c(Nc3ccc(Br)cc3F)ncnc2cc1OCCn1ccnn1 [ZD-4190 FREE BASE],–,–,–,–,–,–,concentration at 6 h [12]: 14000 nM; IC50 [15]: > 100000 nM; IC50 [16]: > 10000 nM; CL/F [17]: 8.33 mL/min/kg; concentration at 24 h [18]: 200 nM; bioavailability [19]: > 80%; IC50 [20]: > 100000 nM; half-life [21]: 1.1 h; logD [11]: 4.6; fraction unbound [22]: 0.05; solubility [23]: 0.7 µM; IC50 [24]: > 20000 nM; half-life [25]: 1.3 h; pKa [26]: 5.3; IC50 [27]: > 10000 nM; fraction unbound [28]: 0.02; IC50 [29]: > 20000 nM; IC50 [30]: > 20000 nM; bioavailability [31]: < 5%
COc1cc2c(Nc3ccc(Br)cc3F)ncnc2cc1OC/C=C/CN1CCCC1.Cl,30,100,5000,8,650,2100,–
COc1cc2/c(=N/c3ccc(Br)cc3F)nc[nH]c2cc1OCC1CCN(C)CC1,–,–,–,–,–,–,SPB [32]: 90%; SPB [33]: 96%
COc1cc2c(Nc3ccc(Cl)cc3F)ncnc2cc1OC[C@@H]1CCCN(C)C1,80,100,5000,5,700,1800,–
COc1cc2c(Nc3c(F)cc(Cl)cc3F)ncnc2cc1OCC1CCN(C)CC1,–,–,> 5000,25,–,1700,–
